Source: US20200069592A1, “HSP90 INHIBITOR ORAL FORMULATIONS AND RELATED METHODS” (Samus Therapeutics, Inc., priority 2017, published 2020)

Columns and labels:
[1] = Tolerability (body weight, toxicity, maximum tolerated dose) in the Example 5 rat study; type: in vivo; conditions: free base
Protocol: Ninety-four total animals were observed thereafter. The parenteral administration is performed by tail vein injection.

[2] = Plasma pharmacokinetics after single oral dose in ORA-Plus or SyrSpend SF (Example 6), LC-MS/MS; type: in vivo, Sprague Dawley rats; conditions: for AUC % Extrap / Cl_F / Vz_F / AUC(0-inf) / AUC(0-t) / Cmax / Tmax / half-life: rat plasma; for % AUC0-last test vs reference: rats, ratio of group averages; for AUC(0-inf) / AUC(0-t) / Cmax / Tmax / half-life: female, rat, plasma, po
[3] = Plasma pharmacokinetics after single PO or IV administration (Example 5), LC-MS/MS; conditions: for Tmax / AUC(0-t) / Cmax: female, rat, plasma, free base; for Tmax: Tmax (hr) Mean ± StdDev; for AUC(0-t): AUC0-last (hr*ng/mL) Mean ± StdDev; for Cmax: Cmax (ng/mL) Mean ± StdDev
Protocol: The animals used in this study were female Sprague Dawley Rats physiologically normal. At the time of receipt, mice were 200-225 g in weight. […] Ninety-four total animals were observed thereafter. The parenteral administration is performed by tail vein injection.
Compound 2 was provided in free base form and stored at −20° C., protected from light. Compound 2 was formulated in dosage form immediately prior to use. For oral administration of Compound 2 in ORA-Plus® drinking solution, Compound 2 was suspended in drinking solution ORA-Plus® (Perrigo; Minneapolis, Minn.). First, a mortar and pestle were used to smooth out the Compound 2 powder, then a small amount of ORA-Plus® was added, and next, the mixture was triturated to a thick, smooth paste. The remainder of the ORA-Plus® was added by geometric dilution. The Compound 2 free base and ORA-Plus® mixture was dispensed in a tight, light resistant amber bottle with appropriate labeling. This mixture was shaken well before using, protected from light and kept refrigerated if dosing was delayed. For oral administration of Compound 2 in citric acid buffer with Captisol®, Compound 2 free base powder was dissolved or suspended into 30% Captisol® (Cydex Pharmaceuticals; Lawrence, Kans.) in 60 mM citrate buffer (pH˜4.2) (citric acid and sodium citrate dehydrate (Sigma-Aldrich; St. Louis Mo.)) in sterile water) to each group's working concentration. […] A magnetic stir-bar was used to mix dosing solution, followed by sonication. For intravenous administration, Compound 2 free base powder was dissolved into 15% Captisol® in 5 mM citrate buffer (pH˜4.2) to each group's working concentration. A magnetic stirbar was used to mix dosing solution, followed by sonication. IV dosing solution of Compound 2 free base was filtered with a 0.2 m PVDF filter (Pall Life Sciences; Port Washington, N.Y.) prior to administration.
Dose levels of Compound 1 were based on the free base, not the salt.
Animals were randomized using random equilibration of body weights on Day 1 into one of 19 study groups, as shown in Table 23 (Groups 1-19), with 5 animals in each group, except for the 4 animals in Group 19. Body weights were collected Days 1, 2, 3, and/or 4 to accommodate data collection of staggered groups. Gross observations of body weight were noted during the course of the study.

[4] = G1: free base, 24 mg/kg single oral dose, ORA-plus
[5] = G2: free base, 48 mg/kg single oral dose, ORA-plus, n = 4
[6] = G7: free base, 24 mg/kg single oral dose, SyrSpend, n = 4
[7] = G8: free base, 48 mg/kg single oral dose, SyrSpend
[8] = Sprague Dawley, 24 mg/kg, G1: free base, 24 mg/kg single oral dose, ORA-plus
[9] = Sprague Dawley, 48 mg/kg, G2: free base, 48 mg/kg single oral dose, ORA-plus
[10] = Sprague Dawley, 48 mg/kg, G2: free base, 48 mg/kg single oral dose, ORA-plus, n = 4
[11] = Sprague-Dawley, 24 mg/kg, G7: free base, 24 mg/kg single oral dose, SyrSpend
[12] = Sprague-Dawley, 24 mg/kg, G7: free base, 24 mg/kg single oral dose, SyrSpend, n = 4
[13] = Sprague-Dawley, 48 mg/kg, G8: free base, 48 mg/kg single oral dose, SyrSpend
[14] = 24 mg/kg PO, Group 1 (ORA-plus) relative to Group 5 (citrate buffer-Captisol)
[15] = 36 mg/kg PO, Group 2 (ORA-plus) relative to Group 6 (citrate buffer-Captisol)
[16] = 48 mg/kg PO, Group 3 (ORA-plus) relative to Group 7 (citrate buffer-Captisol)
[17] = 60 mg/kg PO, Group 4 (ORA-plus) relative to Group 8 (citrate buffer-Captisol)
[18] = Sprague Dawley, po, 24 mg/kg, Group 5: 24 mg/kg PO, 60 mM Citric acid buffer + 30% Captisol
[19] = Sprague Dawley, po, 36 mg/kg, Group 2: 36 mg/kg PO, ORA-Plus
[20] = Sprague Dawley, po, 36 mg/kg, Group 6: 36 mg/kg PO, 60 mM Citric acid buffer + 30% Captisol
[21] = Sprague Dawley, po, 48 mg/kg, Group 3: 48 mg/kg PO, ORA-Plus
[22] = Sprague Dawley, po, 48 mg/kg, Group 7: 48 mg/kg PO, 60 mM Citric acid buffer + 30% Captisol
[23] = Sprague Dawley, po, 60 mg/kg, Group 4: 60 mg/kg PO, ORA-Plus
[24] = Sprague Dawley, po, 60 mg/kg, Group 8: 60 mg/kg PO, 60 mM Citric acid buffer + 30% Captisol
[25] = Sprague-Dawley, iv, 12 mg/kg, Group 9: 12 mg/kg IV, 5 mM Citric acid buffer + 15% Captisol
[26] = Sprague-Dawley, iv, 24 mg/kg, Group 10: 24 mg/kg IV, 5 mM Citric acid buffer + 15% Captisol
[27] = Sprague-Dawley, po, 24 mg/kg, Group 1: 24 mg/kg PO, ORA-Plus, single dose

## CC(C)(C)CNCCn1c(Sc2cc3c(cc2I)OCO3)nc2c(N)ncnc21 [Compound 2]
[1]; female, Sprague Dawley, rat, in vivo, iv, intravenously administered, rats, read-out: Maximum tolerated dose
  MTD: 24 mg/kg
[1]; higher oral doses (above 24 mg/kg), data not shown
  Body weight and toxicity: minimal effects on body weight and limited toxicity
[2]; [4]
  AUC % Extrap: 2.77 ± 0.30%
  Cl_F: 249.8 ± 24.2 mL/min/kg
  Vz_F: 50.18 ± 39.85 L/kg
[2]; [5]
  AUC % Extrap: 6.22 ± 6.79 %
  Cl_F: 177.2 ± 65.5 mL/min/kg
  Vz_F: 38.84 ± 10.64 L/kg
[2]; [6]
  AUC % Extrap: 6.89 ± 3.49 %
  Cl_F: 369.7 ± 105 mL/min/kg
  Vz_F: 88.96 ± 44.19 L/kg
[2]; [7]
  AUC % Extrap: 1.71 ± 1.37%
  Cl_F: 136 ± 105 mL/min/kg
  Vz_F: 44.20 ± 37.62 L/kg
[2]; Group 1 (24 mg/kg FB ORA-plus) vs Group 3 (24 mg/kg 2HCl ORA-plus)
  % AUC0-last test vs reference: 121.69%
[2]; Group 1 (24 mg/kg FB ORA-plus) vs Group 4 (48 mg/kg 2HCl ORA-plus)
  % AUC0-last test vs reference: 24.79%
[2]; Group 1 (24 mg/kg FB ORA-plus) vs Group 7 (24 mg/kg FB SyrSpend)
  % AUC0-last test vs reference: 123.40%
[2]; Group 1 (24 mg/kg FB ORA-plus) vs Group 9 (24 mg/kg 2HCl SyrSpend)
  % AUC0-last test vs reference: 133.31%
[2]; Group 2 (48 mg/kg FB ORA-plus) vs Group 4 (48 mg/kg 2HCl ORA-plus)
  % AUC0-last test vs reference: 70.46%
[2]; Group 2 (48 mg/kg FB ORA-plus) vs Group 8 (48 mg/kg FB SyrSpend)
  % AUC0-last test vs reference: 54.72%
[2]; Group 2 (48 mg/kg FB ORA-plus) vs Group 10 (48 mg/kg 2HCl SyrSpend)
  % AUC0-last test vs reference: 51.93%
[2]; Group 7 (24 mg/kg FB SyrSpend) vs Group 9 (24 mg/kg 2HCl SyrSpend)
  % AUC0-last test vs reference: 108.03%
[2]; Group 8 (48 mg/kg FB SyrSpend) vs Group 10 (48 mg/kg 2HCl SyrSpend)
  % AUC0-last test vs reference: 94.91%
[2]; [8]
  AUC(0-inf): 1610 ± 156 ng·h/mL
  AUC(0-t): 1570 ± 152 ng·h/mL
  Cmax: 579 ± 108 ng/mL
  Tmax: 1.4 ± 0.55 h
  half-life: 2.36 ± 1.98 h
[2]; [9]
  AUC(0-t): 4460 ± 2110 ng·h/mL
  Cmax: 803 ± 278 ng/mL
  Tmax: 2.8 ± 1.64 h
[2]; [10]
  AUC(0-inf): 5060 ± 2070 ng·h/mL
  half-life: 2.61 ± 0.44 h
[2]; [11]
  AUC(0-t): 1270 ± 524 ng·h/mL
  Cmax: 371 ± 196 ng/mL
  Tmax: 1 h
[2]; [12]
  AUC(0-inf): 1180 ± 451 ng·h/mL
  half-life: 2.78 ± 1.13 h
[2]; [13]
  AUC(0-inf): 8080 ± 4090 ng·h/mL
  AUC(0-t): 8140 ± 3550 ng·h/mL
  Cmax: 1030 ± 421 ng/mL
  Tmax: 3.4 ± 1.95 h
  half-life: 3.56 ± 1.03 h
[2]; single oral dose, free base or 2HCl, ORA-Plus or SyrSpend
  Time point up to which all animals had quantifiable plasma levels: ≥ 8 h
[3]; [14]
  % AUC0-last (hr*ng/mL) ORA vs Citrate Mean ± StdDev: 48.63 ± 15.03%
  % Cmax (ng/mL) ORA vs Citrate Mean ± StdDev: 47.65 ± 16.52%
[3]; [15]
  % AUC0-last (hr*ng/mL) ORA vs Citrate Mean ± StdDev: 91.18 +/− 72.46%
  % Cmax (ng/mL) ORA vs Citrate Mean ± StdDev: 89.97 +/− 82.63%
[3]; [16]
  % AUC0-last (hr*ng/mL) ORA vs Citrate Mean ± StdDev: 94.75 +/− 64.83%
  % Cmax (ng/mL) ORA vs Citrate Mean ± StdDev: 99.04 +/− 80.01%
[3]; [17]
  % AUC0-last (hr*ng/mL) ORA vs Citrate Mean ± StdDev: 75.93 +/− 63.12%
  % Cmax (ng/mL) ORA vs Citrate Mean ± StdDev: 83.99 +/− 73.13%
[3]; Sprague Dawley, iv, 12 mg/kg, Group 9: 12 mg/kg IV, 5 mM Citric acid buffer + 15% Captisol
  Tmax: 0.25 h
[3]; [18]
  AUC(0-t): 2010 ± 176 ng·h/mL
  Cmax: 685 ± 109 ng/mL
  Tmax: 1.8 ± 0.45 h
[3]; [19]
  AUC(0-t): 2680 ± 811 ng·h/mL
  Cmax: 747 ± 238 ng/mL
  Tmax: 1.5 ± 1.41 h
[3]; [20]
  AUC(0-t): 2940 ± 1570 ng·h/mL
  Cmax: 831 ± 618 ng/mL
  Tmax: 2.4 ± 2.07 h
[3]; [21]
  AUC(0-t): 5220 ± 2760 ng·h/mL
  Cmax: 1240 ± 519 ng/mL
  Tmax: 2.7 ± 1.79 h
[3]; [22]
  AUC(0-t): 5510 ± 2590 ng·h/mL
  Cmax: 1400 ± 626 ng/mL
  Tmax: 1.4 ± 0.55 h
[3]; [23]
  AUC(0-t): 3560 ± 906 ng·h/mL
  Cmax: 909 ± 302 ng/mL
  Tmax: 3 ± 2.74 h
[3]; [24]
  AUC(0-t): 4750 ± 3070 ng·h/mL
  Cmax: 1080 ± 584 ng/mL
  Tmax: 4.4 ± 1.67 h
[3]; [25]
  AUC(0-t): 3390 ± 402 ng·h/mL
  Cmax: 2360 ± 92.7 ng/mL
[3]; [26]
  AUC(0-t): 7500 ± 552 ng·h/mL
  Cmax: 5110 ± 416 ng/mL
  Tmax: 0.25 h
[3]; [27]
  AUC(0-t): 975 ± 304 ng·h/mL
  Cmax: 321 ± 111 ng/mL
  Tmax: 0.9 ± 0.22 h
